{"source": "patent US20230082430A1", "about": "(C4 Therapeutics, Inc., priority 2019, published 2023)"}
{"system": "NCIH929.1 cells", "test": "Cell viability assay for Table 2 (CellTiter-Glo 2.0, ATP quantification, 96 hr)", "type": "cell-based", "settings": "96 h, NCIH929.1 cell viability, 96 hr, top concentration 1 μM, 14 points half log titration; read-out: IC50", "text": "(§1) Cell Viability Assay for Table 2\n(§2) CellTiter-Glo® 2.0 Assay was purchased from Promega (Madison, Wis., USA). NCIH929.1 cell line was purchased from ATCC (Manassas, Va., USA). Cell culture flasks and 384-well microplates were acquired from VWR (Radnor, Pa., USA).", "units": {"IC50": "nM"}}
{"smiles": "CC1(CN2CCC(n3cc(Cc4ccc5c6c(cccc46)C(=O)N5C4CCC(=O)NC4=O)cn3)CC2)CC1", "note": "(single isomer, unassigned) [Compound 234, 3-[6-[[1-[1-[(1-methylcyclopropyl)methyl]-4-piperidyl]pyrazol-4-yl]methyl]-2-oxo-benzo[cd]indol-1-yl]piperidine-2,6-dione]", "IC50": "< 1"}
{"smiles": "CC1(CN2CCC(n3cc(Cc4ccc5c6c(cccc46)C(=O)N5C4CCC(=O)NC4=O)cn3)CC2)CCC1", "note": "(single isomer, unassigned) [Compound 236, 3-[6-[[1-[1-[(1-methylcyclobutyl)methyl]-4-piperidyl]pyrazol-4-yl]methyl]-2-oxo-benzo[cd]indol-1-yl]piperidine-2,6-dione]", "IC50": "< 1"}
{"smiles": "CC1(n2cc(Cc3ccc4c5c(cccc35)C(=O)N4C3CCC(=O)NC3=O)cn2)CCN(C(=O)C23COC(C2)C3)CC1", "note": "(single isomer, unassigned) [Compound 238, 3-[6-[[1-[4-methyl-1-(2-oxabicyclo[2.1.1]hexane-4-carbonyl)-4-piperidyl]pyrazol-4-yl]methyl]-2-oxo-benzo[cd]indol-1-yl]piperidine-2,6-dione]", "IC50": "< 1"}
{"smiles": "O=C1CCC(N2C(=O)c3cccc4c(Cc5cnn(C6CCN(C7CCC78CCC8)CC6)c5)ccc2c34)C(=O)N1", "note": "(single isomer, unassigned) [Compound 244, 3-{2-Oxo-6-[1-(1-spiro[3.3]hept-1-yl-piperidin-4-yl)-1H-pyrazol-4-ylmethyl]-2H-benzo[cd]indol-1-yl}-piperidine-2,6-dione]", "IC50": "< 1"}
{"smiles": "O=C1CCC(N2C(=O)c3cccc4c(Cc5ccc(CN6CCN(c7ccc(Cl)cc7F)CC6)cc5)ccc2c34)C(=O)N1", "note": "(single isomer, unassigned) [Compound 254, 3-[6-[[4-[[4-(4-chloro-2-fluoro-phenyl)piperazin-1-yl]methyl]phenyl]methyl]-2-oxo-benzo[cd]indol-1-yl]-piperidine-2,6-dione]", "IC50": "< 1"}
{"smiles": "O=C1CCC(N2C(=O)c3cccc4c(Cc5ccc(CN6CCN(c7ccc(F)cc7F)CC6)cc5)ccc2c34)C(=O)N1", "note": "(single isomer, unassigned) [Compound 256, 3-(6-(4-((4-(2,4-difluorophenyl)piperazin-1-yl)methyl)benzyl)-2-oxobenzo[cd]indol-1(2H)-yl)piperidine-2,6-dione]", "IC50": "< 1"}
{"smiles": "CC1(CN2CCC(n3cc(Cc4ccc5c6c(cccc46)C(=O)N5C4CCC(=O)NC4=O)cn3)CC23CC3)CCC1", "note": "(single isomer, unassigned) [Compound 274, 3-[6-[[1-[4-[(1-methylcyclobutyl)methyl]-4-azaspiro[2.5]octan-7-yl]pyrazol-4-yl]methyl]-2-oxo-benzo[cd]indol-1-yl]piperidine-2,6-dione]", "IC50": "< 1"}
{"smiles": "CC(C1CCC1)N1CCC(n2cc(Cc3ccc4c5c(cccc35)C(=O)N4C3CCC(=O)NC3=O)cn2)CC1", "note": "(single isomer, unassigned) [Compound 280, 3-[6-[[1-[1-[1-cyclobutylethyl]-4-piperidyl]pyrazol-4-yl]methyl]-2-oxo-benzo[cd]indol-1-yl]piperidine-2,6-dione]", "IC50": "< 1"}
{"smiles": "CC(C1CC1)N1CCC(n2cc(Cc3ccc4c5c(cccc35)C(=O)N4C3CCC(=O)NC3=O)cn2)CC1", "note": "(single isomer, unassigned) [Compound 282, 3-(6-((1-(1-(1-cyclopropylethyl)piperidin-4-yl)-1H-pyrazol-4-yl)methyl)-2-oxobenzo[cd]indol-1(2H)-yl)piperidine-2,6-dione]", "IC50": "< 1"}
{"smiles": "CC(c1ccc(Cc2ccc3c4c(cccc24)C(=O)N3C2CCC(=O)NC2=O)cc1)N1CCN(c2ccccc2F)CC1", "note": "(single isomer, unassigned) [Compound 284, 3-[6-[[4-[1-[4-(2-fluorophenyl)piperazin-1-yl]ethyl]phenyl]methyl]-2-oxo-benzo[cd]indol-1-yl]piperidine-2,6-dione]", "IC50": "< 1"}
{"system": "NCIH929.1 cells", "test": "Cell viability assay for Table 2 (CellTiter-Glo 2.0, ATP quantification, 96 hr)", "type": "cell-based", "settings": "NCIH929.1 cell viability, 96 hr, top concentration 1 μM, 14 points half log titration; read-out: IC50", "text": "as §1, §2", "units": {"IC50": "nM"}}
{"smiles": "CC1(CN2CCC(n3cc(Cc4ccc5c6c(cccc46)C(=O)N5C4CCC(=O)NC4=O)cn3)CC2)CC1", "note": "(single isomer, unassigned) [Compound 235, 3-[6-[[1-[1-[(1-methylcyclopropyl)methyl]-4-piperidyl]pyrazol-4-yl]methyl]-2-oxo-benzo[cd]indol-1-yl]piperidine-2,6-dione]", "IC50": "< 1"}
{"smiles": "CC1(CN2CCC(n3cc(Cc4ccc5c6c(cccc46)C(=O)N5C4CCC(=O)NC4=O)cn3)CC2)CCC1", "note": "(single isomer, unassigned) [Compound 237, 3-[6-[[1-[1-[(1-methylcyclobutyl)methyl]-4-piperidyl]pyrazol-4-yl]methyl]-2-oxo-benzo[cd]indol-1-yl]piperidine-2,6-dione]", "IC50": "< 1"}
{"smiles": "CC1(n2cc(Cc3ccc4c5c(cccc35)C(=O)N4C3CCC(=O)NC3=O)cn2)CCN(C(=O)C23COC(C2)C3)CC1", "note": "(single isomer, unassigned) [Compound 239, 3-[6-[[1-[4-methyl-1-(2-oxabicyclo[2.1.1]hexane-4-carbonyl)-4-piperidyl]pyrazol-4-yl]methyl]-2-oxo-benzo[cd]indol-1-yl]piperidine-2,6-dione]", "IC50": "< 1"}
{"smiles": "O=C1CCC(N2C(=O)c3cccc4c(Cc5cnn(C6CCN(C7CCC78CCC8)CC6)c5)ccc2c34)C(=O)N1", "note": "(single isomer, unassigned) [Compound 245, 3-{2-Oxo-6-[1-(1-spiro[3.3]hept-1-yl-piperidin-4-yl)-1H-pyrazol-4-ylmethyl]-2H-benzo[cd]indol-1-yl}-piperidine-2,6-dione]", "IC50": "< 1"}
{"smiles": "O=C1CCC(N2C(=O)c3cccc4c(Cc5ccc(CN6CCN(c7ccc(Cl)cc7F)CC6)cc5)ccc2c34)C(=O)N1", "note": "(single isomer, unassigned) [Compound 255, 3-[6-[[4-[[4-(4-chloro-2-fluoro-phenyl)piperazin-1-yl]methyl]phenyl]methyl]-2-oxo-benzo[cd]indol-1-yl]piperidine-2,6-dione]", "IC50": "< 1"}
{"smiles": "O=C1CCC(N2C(=O)c3cccc4c(Cc5ccc(CN6CCN(c7ccc(F)cc7F)CC6)cc5)ccc2c34)C(=O)N1", "note": "(single isomer, unassigned) [Compound 257, 3-(6-(4-((4-(2,4-difluorophenyl)piperazin-1-yl)methyl)benzyl)-2-oxobenzo[cd]indol-1(2H)-yl)piperidine-2,6-dione]", "IC50": "< 1"}
{"smiles": "CC(C1CCC1)N1CCC(n2cc(Cc3ccc4c5c(cccc35)C(=O)N4C3CCC(=O)NC3=O)cn2)CC1", "note": "(single isomer, unassigned) [Compound 281, 3-[6-[[1-[1-[1-cyclobutylethyl]-4-piperidyl]pyrazol-4-yl]methyl]-2-oxo-benzo[cd]indol-1-yl]piperidine-2,6-dione]", "IC50": "< 1"}
{"smiles": "CC(C1CC1)N1CCC(n2cc(Cc3ccc4c5c(cccc35)C(=O)N4C3CCC(=O)NC3=O)cn2)CC1", "note": "(single isomer, unassigned) [Compound 283, 3-(6-((1-(1-(1-cyclopropylethyl)piperidin-4-yl)-1H-pyrazol-4-yl)methyl)-2-oxobenzo[cd]indol-1(2H)-yl)piperidine-2,6-dione]", "IC50": "< 1"}
{"smiles": "CC(c1ccc(Cc2ccc3c4c(cccc24)C(=O)N3C2CCC(=O)NC2=O)cc1)N1CCN(c2ccccc2F)CC1", "note": "(single isomer, unassigned) [Compound 285, 3-[6-[[4-[1-[4-(2-fluorophenyl)piperazin-1-yl]ethyl]phenyl]methyl]-2-oxo-benzo[cd]indol-1-yl]piperidine-2,6-dione]", "IC50": "< 1"}
